Measured values: US11401279B2, “Pyrido[3,2-d]pyrimidine compounds as immunomodulators” (Incyte Corporation, priority 2019, dated 2022)

System: PD-L1 aAPC/CHO-K1 cells and Jurkat-PD-1-NFAT effector cells
Assay: Nuclear factor of activated T-cells (NFAT) assay
Format: cell-based
Details: Cricetulus griseus, CHO-K1; luminescence, 24 hours
Procedure, shortened: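 PD-L1 aAPC/CHO-K1 cells (8000/well) co-cultured with Jurkat-PD-1-NFAT effector cells (10,000/well) plus compound in RPMI/1% FBS, 0.4% DMSO, top concentration 2 μM, 24 h at 37 °C. NFAT luciferase read by Bio-Glo luminescence. Fold induction normalized to DMSO; maximum induction relative to control compound; EC50 from curve fit.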

Structure (SMILES): Cc1c(Nc2nc(C(F)F)nc3cc(CN4CC[C@@H](O)C4)cnc23)cccc1-c1cccc(NC(=O)c2nc3c(n2C)CCN(CCC24CCC(C(=O)O)(CC2)C4)C3)c1Cl [Example 1, (R)-4-(2-(2-((2-chloro-3′-((2-(difluoromethyl)-7-((3-hydroxypyrrolidin-1-yl)methyl)pyrido[3,2-d]pyrimidin-4-yl)amino)-2′-methyl-[1,1′-biphenyl]-3-yl)carbamoyl)-1-methyl-1,4,6,7-tetrahydro-5H-imidazo[4,5-c]pyridin-5-yl)ethyl)bicyclo[2.2.1]heptane-1-carboxylic Acid]
- EC50: 2 nM

Structure (SMILES): Cc1c(Nc2nc(C(F)F)nc3cc(CN4CC[C@@](C)(O)C4)cnc23)cccc1-c1cccc(NC(=O)c2nc3c(n2C)CCN(CCC24CCC(C(=O)O)(CC2)C4)C3)c1Cl [Example 2, (R)-4-(2-(2-((2-chloro-3′-((2-(difluoromethyl)-7-((3-hydroxy-3-methylpyrrolidin-1-yl)methyl)pyrido[3,2-d]pyrimidin-4-yl)amino)-2′-methyl-[1,1′-biphenyl]-3-yl)carbamoyl)-1-methyl-1,4,6,7-tetrahydro-5H-imidazo[4,5-c]pyridin-5-yl)ethyl)bicyclo[2.2.1]heptane-1-carboxylic Acid]
- EC50: 4 nM

Structure (SMILES): Cc1c(NC(=O)c2nc3c(n2C)CCN(CCC24CCC(C(=O)O)(CC2)C4)C3)cccc1-c1cccc(Nc2nc(C(F)F)nc3cc(CN4CC[C@@H](O)C4)cnc23)c1C [Example 5, (R)-4-(2-(2-((3′-((2-(difluoromethyl)-7-((3-hydroxypyrrolidin-1-yl)methyl)pyrido[3,2-d]pyrimidin-4-yl)amino)-2,2′-dimethyl-[1,1′-biphenyl]-3-yl)carbamoyl)-1-methyl-1,4,6,7-tetrahydro-5H-imidazo[4,5-c]pyridin-5-yl)ethyl)bicyclo[2.2.1]heptane-1-carboxylic Acid]
- EC50: 9.2 nM
